pIC50: −log10 of the molar value. Several values for one entry are separate records, joined by “and”; a condition that tells them apart may be missing. Identical values can stand only once.
biological target: SARS-CoV-2 Main Protease (SARS-CoV-2) (UniProt P0DTD1)

| Compound | pIC50 |
| --- | --- |
| CC(C)(C)c1ccc(N(C(=O)c2cncs2)C(C(=O)NCCc2cccc(F)c2)c2cccnc2)cc1 (stereo unspecified) | 4.62 |
| O=C(Cc1cccc(Cl)c1)Nc1noc2ccccc12 | < 4.00 |
| Cc1nc2ccc(NCc3cnc4ccccn34)cn2n1 | < 4.00 |
| O=C(Cc1cccc(Cl)c1)Nc1cnccc1-c1ccccc1 | 4.39 |
| O=C(CC1(C(=O)Nc2cncc3ccccc23)CCOc2ccc(Cl)cc21)N1C[C@@H]2C[C@H]1CN2CC(F)F (stereo in doubt) | 5.42 |
| Cc1ccncc1NC(=O)Cc1cc(Cl)cc(OCc2nn(C(=O)OC(C)(C)C)c3ccccc23)c1 | < 4.00 |
| CNC(=O)CN1Cc2ccc(Cl)cc2C(C(=O)Nc2cncc3cc(COC)ccc23)C1 (stereo unspecified) | 6.92 |
| O=C(Cc1cc(Cl)cc(Nc2c(Cl)cncc2Cl)c1)Nc1cncc2ccccc12 | 5.69 |
| CC(=O)N1CCN(CC(=O)Nc2cncc3ccccc23)CC1 | < 4.00 and 4.29 |
| O=C(Cc1cc(Cl)cc(Nc2ccc(-c3ccccn3)cc2)c1)Nc1cncc2ccccc12 | 5.78 |
| O=C(NCCc1cccc(F)c1)C(c1cccnc1)N(C(=O)c1cocn1)c1ccc2c(c1)CCC(=O)N2CC(F)F (stereo unspecified) | 4.61 |
| CC1(CS(=O)(=O)N2Cc3ccc(Cl)cc3[C@H](C(=O)Nc3cncc4ccccc34)C2)CC1 (stereo in doubt) | > 7.30 and 7.07 and 7.34 |
| Cc1cc(C(F)(F)F)nc2n[nH]c(NC(=O)Cc3cccc(Cl)c3)c12 | < 4.00 |
| CCOc1ccc(CNc2cc(Cl)cc(CC(=O)Nc3cncc4ccccc34)c2)cc1 | 5.47 |
| COCCCNCC1(C(=O)Nc2cncc3ccccc23)CCOc2ccc(Cl)cc21 (stereo unspecified) | 4.94 |
| O=C(Nc1cccc(F)c1)[C@@H](c1ccccc1)N1Cc2ccccc2C1=O (stereo in doubt) | < 4.00 |
| O=C(Cc1cc(Cl)cc(B(O)O)c1)Nc1cncc2ccccc12 | 5.32 |
| O=C(CC1(C(=O)Nc2cncc3ccccc23)CCOc2ccc(Cl)cc21)N1CCN(CC(F)(F)CO)CC1 (stereo unspecified) | 5.14 |
| O=C(Cc1cc(Cl)cc(Nc2ccccc2Sc2ccccc2)c1)Nc1cncc2ccccc12 | 5.61 |
| O=C(NCCc1ccccc1)[C@H]1CN(C(=O)CCl)CCN1S(=O)(=O)c1ccsc1 (stereo in doubt) | 5.61 |
| Cn1cc(CN(C(=O)Cn2nnc3ccccc32)c2ccc(N3CCCCC3)cc2)cn1 | < 4.00 |
| CN(C)S(=O)(=O)NCC1(C(=O)Nc2cncc3ccccc23)CCOc2ccc(Cl)cc21 (stereo unspecified) | 5.56 |
| CS(=O)(=O)c1ncc(Cl)c(C(=O)Nc2ccccc2Cc2ccccc2)n1 | 6.33 and 6.27 |
| Nc1cncc(NC(=O)C2CCOc3ccc(Cl)cc32)c1C1CC1 (stereo unspecified) | 5.31 |

| Compound | pIC50 |
| --- | --- |
| Cc1ccc(N(Cc2cccc(Cl)c2)C(=O)Cn2nnc3ccccc32)cc1 | 5.63 |
| O=C(NCC1=[SH]C=CC1)[C@@H](c1ccccc1)N1Cc2ccccc2C1=O (stereo in doubt) | < 4.00 |
| O=C(NCCc1cccc(F)c1)C(c1cccnc1)N(C(=O)c1cocn1)[C@H]1C[C@H](Oc2ccccc2)C1 (stereo partly specified) | < 4.00 |
| COc1ccccc1N1CCN(C(=O)c2cc(=O)[nH]c3ccccc23)CC1 | 4.48 |
| Cn1ncc2cc(N(C(=O)c3cocn3)C(C(=O)NCCc3cccc(F)c3)c3cccnc3)ccc21 (stereo unspecified) | 4.32 |
| O=C(c1cccc(N2CCCNC2=O)c1)N1CCC(C2CCNC2)CC1 (stereo unspecified) | < 4.00 |
| Cc1cn(-c2cc(Nc3cc(Cl)cc(CC(=O)Nc4cncc5ccccc45)c3)cc(C(F)(F)F)c2)cn1 | 5.60 |
| O=C(Cc1cc(Cl)cc(NCc2ccccc2Br)c1)Nc1cncc2ccccc12 | 5.46 |
| CO[C@@H]1COC[C@H]1n1cc(C(=O)N(c2ccc(C(C)(C)C)cc2)C(C(=O)NCCc2cccc(F)c2)c2cccnc2)nn1 (stereo in doubt) | < 4.00 |
| O=C(O)c1ccc(CNCc2c[nH]nc2-c2cccs2)cc1 | < 4.00 |
| Cc1c(Br)cnc(Nc2cc(Cl)cc(CC(=O)Nc3cncc4ccccc34)c2)c1[N+](=O)[O-] | 5.66 |
| Cc1ccn2c(NC(=O)Cc3cccc(Cl)c3)cnc2c1 | 4.71 |
| COc1ccc(Cl)cc1OCCNC(=O)c1cc(=O)[nH]c2ccccc12 | < 4.00 |
| CN1Cc2ccc(Cl)cc2C(C(=O)Nc2cncc3ccccc23)C1 (stereo unspecified) | 5.70 |
| COC(=O)C(C)NC(=O)C(c1cccnc1)N(C(=O)c1cocn1)c1ccc(C(C)(C)C)cc1 (stereo unspecified) | 5.14 |
| O=C(Cc1cc(Cl)cc(Nc2ccc(Br)nc2)c1)Nc1cncc2ccccc12 | 5.71 |
| CC(C)(C)c1ccc(N(C(=O)c2cn[nH]c2)C(C(=O)NCCc2cccc(F)c2)c2cccnc2)cc1 (stereo unspecified) | 5.23 |
| COc1ccc(N(C(=O)c2cocn2)C(C(=O)NCCc2cccc(F)c2)c2cccnc2)cc1 (stereo unspecified) | 4.65 |
| Cc1ccncc1NC(=O)C(C)c1cc(Cl)cc(OC2CC(=O)N2)c1 (stereo unspecified) | 4.11 |
| CC(C)(C)c1ccc(N(C(=O)c2cccc(C#N)c2)C(C(=O)NCCc2cccc(F)c2)c2cccnc2)cc1 (stereo unspecified) | < 4.00 |
| CCC(=O)Nc1ccc(N(C)C(=O)Cn2nnc3ccccc32)cc1 | < 4.00 |
| O=C(Cc1cc(Cl)cc(NCC(c2ccccc2)c2ccccc2)c1)Nc1cncc2ccccc12 | 5.24 |
| Cc1nc(C(=O)N(c2ccc(C(C)(C)C)cc2)C(C(=O)NCCc2cccc(F)c2)c2cccnc2)nn1-c1nnc[nH]1 (stereo unspecified) | < 4.00 |
| CCOC(=O)Cn1cc(C(=O)N(c2ccc(C(C)(C)C)cc2)C(C(=O)NCCc2cccc(F)c2)c2cccnc2)nn1 (stereo unspecified) | 4.36 |

| Compound | pIC50 |
| --- | --- |
| O=C(CCl)N1CCCN(S(=O)(=O)c2ccc(F)cc2)CC1 | 4.36 |
| Cc1cc(C)nc(C#N)n1 | < 4.00 |
| CN(C)c1ccc(N(Cc2cccc(Cl)c2)C(=O)Cn2nnc3ccccc32)cc1 | 6.30 |
| CSCCNC(=O)C(c1cccnc1)N(C(=O)c1cocn1)c1ccc(C(C)(C)C)cc1 (stereo unspecified) | 5.61 |
| CS(=O)(=O)Nc1ccc2cncc(NC(=O)C3CN(S(=O)(=O)CC4(C#N)CC4)Cc4ccc(Cl)cc43)c2c1 (stereo unspecified) | 6.57 |
| Cc1cc(Nc2cc(Cl)cc(CC(=O)Nc3cncc4ccccc34)c2)cnc1Br | 5.71 |
| O=C(CN1CC(C(=O)Nc2cncc3ccccc23)c2cc(Cl)ccc2C1=O)NCC(F)(F)F (stereo unspecified) | 6.47 |
| Cc1ccc(Nc2cc(Cl)cc(CC(=O)Nc3cncc4ccccc34)c2)c(Br)c1 | 5.72 |
| Cc1ccc(C(Cc2ccccc2)C(=O)Nc2nnn3ccccc23)cc1 (stereo unspecified) | < 4.00 |
| O=C(Nc1nncn1C1CC1)C1CCOc2ccc(Cl)cc21 (stereo unspecified) | 6.29 and 6.16 |
| CC(C)(C)c1ccc(N(C(=O)c2cocn2)C(C(=O)NCCc2cccc(F)c2)c2cncnc2)cc1 (stereo unspecified) | 5.53 |
| CSc1ncc(C#N)c(Nc2cc(Cl)cc(CC(=O)Nc3cncc4ccccc34)c2)n1 | 5.74 |
| COc1cccc(CCNc2cc(Cl)cc(CC(=O)Nc3cncc4ccccc34)c2)c1 | 5.50 |
| Cc1cccc(NC(=O)[C@@H](c2ccccc2)N2Cc3ccccc3C2=O)n1 (stereo in doubt) | < 4.00 |
| N#Cc1ccc(N(C(=O)c2cocn2)C(C(=O)NCCc2cccc(F)c2)c2cccnc2)cc1 (stereo unspecified) | < 4.00 |
| O=C(NCCc1cccc(F)c1)C(c1cccnc1)N(C(=O)c1cnc[nH]1)c1cccc(C2COC2)c1 (stereo unspecified) | < 4.00 |
| N#CCN1Cc2ccc(Cl)cc2C(C(=O)Nc2cncc3ccccc23)C1 (stereo unspecified) | 6.47 |
| O=C(Nc1cncc2ccccc12)[C@H]1CCNc2cc(Cl)c(Cl)cc21 (stereo in doubt) | < 4.00 |
| O=C(Nc1cncc2ccccc12)c1ccnc2cc(Cl)c(Cl)cc12 | 4.55 |
| CCOc1c(Cl)cccc1CC(=O)Nc1cncc2ccccc12 | 5.16 |
| Cn1cc(-c2cc(C(=O)N(c3ccc(C(C)(C)C)cc3)C(C(=O)NCCc3cccc(F)c3)c3cccnc3)on2)cn1 (stereo unspecified) | < 4.00 |
| CN(Cc1cccc([N+](=O)[O-])c1)c1cc(Cl)cc(CC(=O)Nc2cncc3ccccc23)c1 | 5.82 |
| COc1ccc(NC(=O)C(c2cccnc2)N(C(=O)c2cocn2)c2ccc(C(C)(C)C)cc2)cn1 (stereo unspecified) | 5.27 |
| O=C(Cc1cc(Cl)cc(Nc2ccc(N3CCOCC3=O)cc2)c1)Nc1cncc2ccccc12 | 5.70 |

| Compound | pIC50 |
| --- | --- |
| O=C(NCCc1cccc(F)c1)C(c1cccnc1)N(C(=O)c1cocn1)c1ccc(Cn2cccn2)cc1 (stereo unspecified) | 5.08 |
| COC(=O)/C=C/C(=O)N(C(=O)[C@@H]1CCOc2ccc(Cl)cc21)c1cncc2ccccc12 (stereo in doubt) | 6.30 |
| O=C(Cc1cc(Cl)cc(NCc2ccc(Br)cc2)c1)Nc1cncc2ccccc12 | < 4.00 |
| O=c1[nH]c(Cc2cccc(C(F)(F)F)c2)nc2cnccc12 | < 4.00 |
| O=C(NCc1ccccn1)[C@H]1CN(C(=O)CCl)CCN1S(=O)(=O)c1ccsc1 (stereo in doubt) | 6.51 |
| O=C1CC(C(=O)Nc2cncc3ccccc23)c2cc(Cl)cc(Cl)c2N1 (stereo unspecified) | 5.61 and 5.42 |
| COc1ccc(-c2ccsc2S(=O)(=O)N2CCN(C(=O)CCl)CC2)cc1 | 5.98 |
| CC(C)c1cccc(C(C)C)c1Nc1cc(Cl)cc(CC(=O)Nc2cncc3ccccc23)c1 | 5.74 |
| O=C(Nc1cncc2ccccc12)C(NCC1CC1)c1ccc(Cl)c(Cl)c1 (stereo unspecified) | 5.76 |
| Cc1ccncc1NC(=O)Cc1cc(Cl)cc(C2COC2)c1 | 4.72 |
| Cc1nc2ccc(N(C(=O)c3cocn3)C(C(=O)NCCc3cccc(F)c3)c3cccnc3)cc2o1 (stereo unspecified) | < 4.00 |
| CC(C)(C)c1ccc(N(C(=O)c2cocn2)C(C(=O)NCCc2cccc(F)c2)c2c(N3CCOCC3)nc3ccccn3c2=O)cc1 (stereo unspecified) | < 4.00 |
| CN1CCN(c2cc(Cl)cc(CC(=O)Nc3cncc4ccccc34)c2)[C@H](c2ccccc2)C1 (stereo in doubt) | 5.74 |
| COc1ccccc1OCCNC(=O)c1cc(=O)[nH]c2cc(F)ccc12 | < 4.00 |
| C=CC(=O)N(c1cc(C(C)(C)C)on1)C(C(=O)NC(C)(C)C)c1cccnc1 (stereo unspecified) | < 4.00 |
| COc1ccc(N(Cc2ccccc2)C(=O)Cc2c[nH]c3ccccc23)cc1 | < 4.00 |
| Cc1ccc(S(=O)(=O)NCC(=O)N2CCC(NS(N)(=O)=O)CC2)cc1 | < 4.00 |
| O=C(Cc1cccc(Cl)c1)Nc1noc2ncccc12 | < 4.00 |
| O=C(N/N=c1\cc[nH]c2ccccc12)c1ccc2ncccc2c1 | < 4.00 |
| Cc1sc2ncnc(N3CCc4c(ncn4C4CC4)C3)c2c1C | < 4.00 |
| O=C1NC[C@@H](C(=O)Nc2cncc3ccccc23)c2cc(Cl)ccc21 (stereo in doubt) | 4.00 |
| O=C(CN1CC(C(=O)Nc2cncc3cc(F)ccc23)c2cc(Cl)ccc2C1=O)NC1CCC1 (stereo unspecified) | 6.47 |
| O=C(Nc1cncc2cccc(Cl)c12)C12CC(C1)Oc1ccc(Cl)cc12 | 4.12 |
| O=C(Nc1cncc2ccccc12)[C@H]1COc2ccc(Cl)cc2C1 (stereo in doubt) | < 4.00 |
